Measured values published in patent US20250197399A1, “COMPOUNDS, COMPOSITIONS, AND METHODS” (Tenvie Therapeutics, Inc., priority 2022, published 2025).
Read-outs that look alike come from different tables or passages of the source.

Tested on: NLRP3
Test: IL-1β secretion assay in PMA-differentiated, LPS/nigericin-stimulated THP-1 cells (ELISA)
Type: cell-based
Conditions: 25 ng/mL LPS then nigericin, IL-1β in supernatant
Description: Compounds as provided herein were tested in the following assay. Cell culture medium employed contained RPMI 1640 medium (89%), FBS (10%), Pen/Strep (1%), and 2-mercaptoethanol (0.05 mM). Freezing medium was made up of 90% FBS and 10% DMSO. THP-1 cells were removed from the liquid nitrogen and placed into a 37° C. water bath to thaw, until signs of ice dissipated. The cells were then added to 9 mL of warm cell culture medium and centrifuged for 5 minutes at 1000 rpm. The supernatant was discarded, and the cells were resuspended in new cell culture medium. THP-1 cells were then split and cultured in the cell culture medium, being passaged every 2-3 days with the cell density will be maintained between 5×10^5 and 1.5×10^6 viable cells/mL.
PMA was dissolved in DMSO to make a stock solution at 5 mg/ml and stored in 10 μl aliquots at −20° C. for single use. PMA is added to normal growth medium. LPS was diluted with 1 mL of water solution to provide a 1 mg/mL stock solution and stored in 15 μL aliquots at −20° C. for single use. Nigericin is diluted in ice cold 100% ethanol to 5 mg/ml (6.7 mM) and stored in 75 μL aliquots at −20° C. for single use. Serum-free media contains RPMI 1640 medium (99%), Pen/Strep (1%), and 2-mercaptoethanol (0.05 mM). The two control conditions used to qualify and normalize test compound dose-response curves were as follows: High Control=25 ng/mL LPS, […], 0.5% DMSO, Low Control=25 ng/mL, LPS, 0.5% DMSO.
THP-1 cells were diluted to provide a suspension at a concentration of 1.0×10^6 cells/mL with the total volume of suspension required to enable the desired number of assay plates. The growth media was supplemented with PMA (5 ng/mL final concentration) and the cells were incubated at 37° C. under a humidified atmosphere of 5% CO2 for 40 h.
All media was carefully aspirated from each culture flask. The cells were washed carefully with 1×DPBS. The cells were then briefly digested with trypsin LE for 5 minutes at 23° C. and immediately resuspended in cell growth media. After resuspension, the cells were centrifuged at 1000 rpm for 3 minutes and the supernatant was discarded. The cells were resuspended in DPBS and once again centrifuged at 1000 rpm for 5 minutes. The supernatant was discarded and the cell pellet was resuspended in serum-free media supplemented with LPS (25 ng/mL final concentration) to enable the distribution of 30K THP-1 cells within 45 μL of media into each well of 384-well PDL-coated plates. The 384-well plates were then incubated at 37° C. under a humidified atmosphere of 5% CO2 for 2 h. Following this period, test compounds were dispensed by Tecan across the desired concentration range with all wells normalized to a final 0.5% DMSO concentration. The plates were then then incubated at 37° C. under a humidified atmosphere of 5% CO2 for 1 h. Following this period, 5 μL of the 5 mg/mL nigericin stock solution was added to each of the appropriate wells and plates were centrifuged at 1000 rpm for 30 seconds. The plates were the immediately reintroduced to the incubator at 37° C. under a humidified atmosphere of 5% CO2 for 2 h. After this time, 35 μL/well of supernatant was collected and transferred into v-bottom plate and centrifuged at 1000 rpm for 1 minute. These supernatant aliquots were analyzed using an IL-Iβ detection kit as described below. If needed, the test samples could be snap frozen and stored at −80° C. until analyzed.
To prepare each ELISA plate, capture antibody (mAb Mt175) was diluted with PBS to a final concentration of […] and then 20 μL of this solution was added to each well of the ELISA plate. Each plate was allowed to incubate overnight at 4° C. The next day, the capture antibody solution was removed and discarded. Each ELISA plate was washed 4 times with PBST followed by the addition of 25 µL/well of blocking buffer (Licor-927-40010) supplemented with 0.1% Tween 20. Each ELISA plate was then allowed to incubate for 1 hour at 23° C. […]

[1] = Homo sapiens, THP-1, THP-1 cells, read-out: Activity (IC50 class)
[2] = THP-1 cells, read-out: Activity
[3] = THP-1 cells, read-out: Activity (IC50 class)

For `C[C@]1(O)C[C@@H](NC(=O)CN2CC(C(F)(F)F)c3cc(I)ccc3C2=O)C1` (single isomer, unassigned) [Example 10, N-(3-cis-hydroxy-3-methylcyclobutyl)-2-(6-iodo-1-oxo-4-(trifluoromethyl)-3,4-dihydroisoquinolin-2(1H)-yl)acetamide], the IC50 [1] was 1000 to 10000 nM and the IC50 [2] was 4080 nM.

In the case of `C[C@]1(O)C[C@@H](NC(=O)CN2CC(C(F)(F)F)c3cc(I)ccc3C2=O)C1` (single isomer, unassigned) [Example 11, N-(3-cis-hydroxy-3-methylcyclobutyl)-2-(6-iodo-1-oxo-4-(trifluoromethyl)-3,4-dihydroisoquinolin-2(1H)-yl)acetamide], the IC50 [2] is reported as 57 nM and the IC50 [3] is reported as under 1000 nM.

With `O=C(CN1C[C@@]2(C[C@@H]2F)c2c(ccc(C(F)(F)F)c2F)C1=O)Nc1ncc(Cl)cn1` (single isomer, unassigned) [Example 12, 2-[(2′s,4r)-2′,5-difluoro-1-oxo-6-(trifluoromethyl)spiro[3H-isoquinoline-4,1′-cyclopropane]-2-yl]-N-(5-chloropyrimidin-2-yl)acetamide] the IC50 [1] was under 1000 nM and the IC50 [2] was 54 nM.

With `O=C(CN1C[C@@]2(C[C@@H]2F)c2c(ccc(C(F)(F)F)c2F)C1=O)Nc1ncc(Cl)cn1` (single isomer, unassigned) [Example 13, 2-[(2′s,4r)-2′,5-difluoro-1-oxo-6-(trifluoromethyl)spiro[3H-isoquinoline-4,1′-cyclopropane]-2-yl]-N-(5-chloropyrimidin-2-yl)acetamide] the IC50 [2] was 232 nM and the IC50 [3] was under 1000 nM.

With `O=C(CN1CC2(CC2(F)F)c2c(ccc(C(F)(F)F)c2F)C1=O)Nc1ncc(Cl)cn1` (single isomer, unassigned) [Example 14, N-(5-chloropyrimidin-2-yl)-2-[1′,1′,5-trifluoro-6-(trifluoromethyl)-1-oxospiro[3H-isoquinoline-4,2′-cyclopropane]-2-yl]acetamide] the IC50 [3] was over 10000 nM.

Molecule `O=C(CN1CC2(CC2(F)F)c2c(ccc(C(F)(F)F)c2F)C1=O)Nc1ncc(Cl)cn1` (single isomer, unassigned) [Example 15, N-(5-chloropyrimidin-2-yl)-2-[1′,1′,5-trifluoro-6-(trifluoromethyl)-1-oxospiro[3H-isoquinoline-4,2′-cyclopropane]-2-yl]acetamide] has an IC50 [2] of 63 nM and an IC50 [3] of under 1000 nM.

With `O=C(CN1CC2(CC2(F)F)c2cc(Br)ccc2C1=O)Nc1ncc(Cl)cn1` (single isomer, unassigned) [Example 16, N-(5-chloropyrimidin-2-yl)-2-[6-bromo-1′,1′-difluoro-1-oxospiro[3H-isoquinoline-4,2′-cyclopropane]-2-yl]acetamide] the IC50 [1] was 1000 to 10000 nM and the IC50 [2] was 1590 nM.

`O=C(CN1CC2(CC2(F)F)c2cc(Br)ccc2C1=O)Nc1ncc(Cl)cn1` (single isomer, unassigned) [Example 17, N-(5-chloropyrimidin-2-yl)-2-[6-bromo-1′,1′-difluoro-1-oxospiro[3H-isoquinoline-4,2′-cyclopropane]-2-yl]acetamide] showed an IC50 [2] of 28 nM and an IC50 [3] of under 1000 nM.

With `Cc1cnc(NC(=O)CN2CC3(CC3(F)F)c3cc(Br)ccc3C2=O)nc1` (single isomer, unassigned) [Example 18, N-(5-methylpyrimidin-2-yl)-2-[6-bromo-1′,1′-difluoro-1-oxospiro[3H-isoquinoline-4,2′-cyclopropane]-2-yl]acetamide] the IC50 [1] was 1000 to 10000 nM and the IC50 [2] was 3480 nM.

With `Cc1cnc(NC(=O)CN2CC3(CC3(F)F)c3cc(Br)ccc3C2=O)nc1` (single isomer, unassigned) [Example 19, N-(5-methylpyrimidin-2-yl)-2-[6-bromo-1′,1′-difluoro-1-oxospiro[3H-isoquinoline-4,2′-cyclopropane]-2-yl]acetamide] the IC50 [2] was 65 nM and the IC50 [3] was under 1000 nM.

For `C[C@]1(O)C[C@@H](NC(=O)CN2CC3(CC3(F)F)c3cc(Br)ccc3C2=O)C1` (single isomer, unassigned) [Example 20, N-(3-cis-hydroxy-3-methylcyclobutyl)-2-[6-bromo-1′,1′-difluoro-1-oxospiro[3H-isoquinoline-4,2′-cyclopropane]-2-yl]acetamide], the IC50 [2] was 12900 nM and the IC50 [3] was over 10000 nM.

For `C[C@]1(O)C[C@@H](NC(=O)CN2CC3(CC3(F)F)c3cc(Br)ccc3C2=O)C1` (single isomer, unassigned) [Example 21, N-(3-cis-hydroxy-3-methylcyclobutyl)-2-[6-bromo-1′,1′-difluoro-1-oxospiro[3H-isoquinoline-4,2′-cyclopropane]-2-yl]acetamide], the IC50 [2] was 58 nM and the IC50 [3] was under 1000 nM.

`C[C@]1(O)C[C@@H](NC(=O)CN2CC3(CC3(F)F)c3cc(C4(F)CC4)ccc3C2=O)C1` (single isomer, unassigned) [Example 22, N-(3-cis-hydroxy-3-methylcyclobutyl)-2-[1′,1′-difluoro-6-(1-fluorocyclopropyl)-1-oxospiro[3H-isoquinoline-4,2′-cyclopropane]-2-yl]acetamide] gave an IC50 [2] of 8340 nM.

`C[C@]1(O)C[C@@H](NC(=O)CN2CC3(CC3(F)F)c3cc(C4(F)CC4)ccc3C2=O)C1` (single isomer, unassigned) [Example 23, N-(3-cis-hydroxy-3-methylcyclobutyl)-2-[1′,1′-difluoro-6-(1-fluorocyclopropyl)-1-oxospiro[3H-isoquinoline-4,2′-cyclopropane]-2-yl]acetamide] was tested, and the IC50 [1] was under 1000 nM and the IC50 [2] was 32 nM.

Work on `Cc1cnc(NC(=O)CN2CC3(CC3(F)F)c3cc(C4(F)CC4)ccc3C2=O)nc1` (single isomer, unassigned) [Example 24, N-(5-methylpyrimidin-2-yl)-2-[1′,1′-difluoro-6-(1-fluorocyclopropyl)-1-oxospiro[3H-isoquinoline-4,2′-cyclopropane]-2-yl]acetamide] yielded an IC50 [1] of 1000 to 10000 nM and an IC50 [2] of 6090 nM.

Work on `Cc1cnc(NC(=O)CN2CC3(CC3(F)F)c3cc(C4(F)CC4)ccc3C2=O)nc1` (single isomer, unassigned) [Example 25, N-(5-methylpyrimidin-2-yl)-2-[1′,1′-difluoro-6-(1-fluorocyclopropyl)-1-oxospiro[3H-isoquinoline-4,2′-cyclopropane]-2-yl]acetamide] yielded an IC50 [2] of 61 nM and an IC50 [3] of under 1000 nM.

Molecule `O=C(CN1CC2(CC2(F)F)c2cc(C3(F)CC3)ccc2C1=O)Nc1ncc(F)cn1` (single isomer, unassigned) [Example 26, N-(5-fluoropyrimidin-2-yl)-2-[1′,1′-difluoro-6-(1-fluorocyclopropyl)-1-oxospiro[3H-isoquinoline-4,2′-cyclopropane]-2-yl]acetamide] has an IC50 [1] of 1000 to 10000 nM and an IC50 [2] of 5880 nM.

`O=C(CN1CC2(CC2(F)F)c2cc(C3(F)CC3)ccc2C1=O)Nc1ncc(F)cn1` (single isomer, unassigned) [Example 27, N-(5-fluoropyrimidin-2-yl)-2-[1′,1′-difluoro-6-(1-fluorocyclopropyl)-1-oxospiro[3H-isoquinoline-4,2′-cyclopropane]-2-yl]acetamide] was tested, and the IC50 [2] was 128 nM and the IC50 [3] was under 1000 nM.

For `O=C(CN1CC2(CC2(F)F)c2cc(C3CC3)ccc2C1=O)Nc1ncc(F)cn1` (single isomer, unassigned) [Example 28, N-(5-fluoropyrimidin-2-yl)-2-[6-cyclopropyl-1′,1′-difluoro-1-oxospiro[3H-isoquinoline-4,2′-cyclopropane]-2-yl]acetamide], the IC50 [1] was 1000 to 10000 nM and the IC50 [2] was 5730 nM.
